Data from ChEMBL document CHEMBL1159252, “Flavonoid inhibitors of trypsin and leucine aminopeptidase: a proposed mathematical model for IC50 estimation” (J Nat Prod, 1995).

Tests used:
[1] = Inhibition of bovine pancreas trypsin; design: species or system Bos taurus
Cytosol aminopeptidase = molecular target: T1, Cytosol aminopeptidase (Sus scrofa, UniProt P28839); assay: Inhibition of pig kidney cytosolic Leucyl aminopeptidase
T1 sequence (P28839 whole entry): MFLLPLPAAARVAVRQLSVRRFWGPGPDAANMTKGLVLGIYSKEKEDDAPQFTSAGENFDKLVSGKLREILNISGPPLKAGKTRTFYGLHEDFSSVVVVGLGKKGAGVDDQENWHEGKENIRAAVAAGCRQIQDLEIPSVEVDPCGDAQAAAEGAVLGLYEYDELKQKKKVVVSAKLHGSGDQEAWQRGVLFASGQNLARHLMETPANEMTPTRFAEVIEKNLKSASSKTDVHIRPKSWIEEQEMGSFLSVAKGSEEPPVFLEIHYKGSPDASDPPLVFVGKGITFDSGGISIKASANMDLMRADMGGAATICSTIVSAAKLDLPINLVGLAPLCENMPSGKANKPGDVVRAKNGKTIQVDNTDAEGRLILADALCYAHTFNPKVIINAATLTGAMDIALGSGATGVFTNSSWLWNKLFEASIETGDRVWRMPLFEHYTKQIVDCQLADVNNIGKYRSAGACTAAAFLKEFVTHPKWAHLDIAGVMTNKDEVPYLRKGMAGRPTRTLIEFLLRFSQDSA

Row | SMILES | IC50 [1] [µM] | IC50 (Cytosol aminopeptidase) [µM]
1 | O=c1c(O)c(-c2ccc(O)c(O)c2)oc2cc(O)cc(O)c12 [QUERCETIN] | 7.1 | 34.3
2 | O=c1c(O)c(-c2cc(O)c(O)c(O)c2)oc2cc(O)cc(O)c12 [MYRICETIN] | 10.2 | 
3 | O=c1cc(-c2ccc(O)cc2)oc2cc(O)cc(O)c12 [APIGENIN] | 142 | 
4 | O=c1cc(-c2ccc(O)c(O)c2)oc2cc(O)cc(O)c12 [LUTEOLIN] | 35.3 | 49.6
5 | O=c1cc(-c2ccc(O)c(O)c2)oc2ccccc12 |  | 35.1
6 | O=c1c(O)c(-c2ccc(O)cc2O)oc2cc(O)cc(O)c12 [MORIN] | 111 | 
7 | COc1cc(C2Oc3c(O)cc([C@H]4Oc5cc(O)cc(O)c5C(=O)[C@@H]4O)cc3C2CO)ccc1O (stereo not given in full) [SILICRISTIN] | 144 | 
8 | O=c1c(O)c(-c2ccc(O)cc2)oc2cc(O)cc(O)c12 [KAEMPFEROL] | 106 | 
